Experimental data published in patent publication US8338039B2, “Fuel cell” (Sony Corporation, priority 2009, dated 2012).

Columns and labels:
[1] = test system: anode having the enzyme catalyst (glucose dehydrogenase, diaphorase); assay: Current generated by the enzyme-catalyst anode of the fuel cell with additive in the fuel solution; assay type: biochemical
Procedure: Tests were conducted under the following conditions to investigate how the plant essential oil added to the fuel solution affects the fuel cell performance. The plant essential oils used for the test are nutmeg oil, lemongrass oil, and palmarosa oil. The concentration of each plant essential oil in the fuel solution is 1%. The control substance is N,N-diethyl-m-toluamide (DEET), which is an active ingredient used for most insect repellent sprays. The concentration of DEET in the fuel solution is 1%. Incidentally, the concentration of DEET in the formulation is required to be less than 12% according to the Japanese regulation. The fuel solution is a pH buffer solution composed of 2.0 M imidazole/H2SO4, 0.4 M glucose, and ethanol, pH 7.0. […] The plant essential oil is added to the fuel solution and suspended therein by stirring immediately before current measurement. The electrode is one which is made of carbon fiber (1 mm thick). The electrode is coated with an immobilizing agent which is composed of the following ingredients. A mixture of 1.0 PLL and 0.0625 glutaraldehyde, 75.2 μL A solution of glucose dehydrogenase (150 mg/mL), 12.4 μL A solution of diaphorase (150 mg/mL), 1.6 μL A solution of NADH (40.96 mg/mL), 4 μL A solution of AQ2S (60 mM), 37.4 μL An enzyme produced by Amano Enzyme Co., Ltd. is immobilized on the above-mentioned immobilizing agent. […]

[2] = Dissolution of additive in the fuel solution; assay type: physicochemical; conditions: fuel solution containing 1% ethanol; 1% DEET
Procedure: The fuel solution is a pH buffer solution composed of 2.0 M imidazole/H2SO4, 0.4 M glucose, and ethanol, pH 7.0. […] The plant essential oil is added to the fuel solution and suspended therein by stirring immediately before current measurement.

SMILES: CCN(CC)C(=O)c1cccc(C)c1 [DEET, N,N-diethyl-m-toluamide]
- current value produced by the enzymatic catalyst at the anode, compared with fuel solution not incorporated with the additive ([1]; 1% additive in fuel solution (2.0 M imidazole/H2SO4, 0.4 M glucose, ethanol, pH 7.0), carbon fiber anode): lower current value
- effect on the fuel cell performance ([1]; added to the fuel solution at 1%): deteriorates the fuel cell performance
- solubility in the fuel solution [2]: dissolves 1% DEET completely
